In the NIST ThermoML archive (doi:10.1016/j.jct.2007.06.014):

Assay: xn = mol fraction of the nth substance listed
Settings: Liquid, Bellows volumetry

CCCC [butane] + CCC
mass density [kg/m3]
Settings | 280 K | 300 K | 320 K | 340 K | 360 K | 380 K | 400 K | 420 K | 440 K
1000 kPa, x2 = 0.2729 | 578.83 | – | 528 | – | – | – | – | – | –
1000 kPa, x2 = 0.5021 | 563.28 | 537.32 | – | – | – | – | – | – | –
1000 kPa, x2 = 0.7308 | 546.41 | – | – | – | – | – | – | – | –
2000 kPa, x2 = 0.2729 | 580.29 | – | 530.61 | – | 467.01 | – | – | – | –
2000 kPa, x2 = 0.5021 | 564.88 | 539.48 | 511.85 | 479.55 | – | – | – | – | –
2000 kPa, x2 = 0.7308 | 548.19 | – | 489.94 | – | – | – | – | – | –
3000 kPa, x2 = 0.2729 | 581.81 | – | 533.12 | – | 472.48 | – | – | – | –
3000 kPa, x2 = 0.5021 | 566.5 | 541.56 | 514.73 | 483.91 | 445.79 | – | – | – | –
3000 kPa, x2 = 0.7308 | 550.07 | – | 493.41 | – | 409.73 | – | – | – | –
5000 kPa, x2 = 0.2729 | 584.56 | – | 537.8 | – | 481.94 | – | 398.7 | – | –
5000 kPa, x2 = 0.5021 | 569.65 | 545.62 | 519.99 | 491.54 | 458.29 | 415.53 | – | – | –
5000 kPa, x2 = 0.7308 | 553.51 | – | 499.74 | – | 428.83 | – | – | – | –
10000 kPa, x2 = 0.2729 | 591.21 | – | 548.01 | – | 499.9 | – | 441.29 | – | 365.44
10000 kPa, x2 = 0.5021 | 576.66 | 554.42 | 531.57 | 506.78 | 480.01 | 449.59 | 415.12 | 374.84 | –
10000 kPa, x2 = 0.7308 | 561.23 | – | 512.85 | – | 456.8 | – | 383.18 | – | –
20000 kPa, x2 = 0.2729 | 602.5 | – | 564.4 | – | 524.51 | – | 481.03 | – | 435.74
20000 kPa, x2 = 0.5021 | 588.96 | 569.12 | 549.41 | 528.92 | 507.83 | 485.35 | 462.03 | 438.42 | 414.16
20000 kPa, x2 = 0.7308 | 574.44 | – | 532.72 | – | 488.73 | – | 440.67 | – | 389.82
30000 kPa, x2 = 0.2729 | 612.44 | – | 577.65 | – | 542.33 | – | 505.41 | – | 469.11
30000 kPa, x2 = 0.5021 | 599.33 | 581.32 | 563.54 | 545.35 | 527.21 | 508.03 | 488.88 | 469.92 | 451.25
30000 kPa, x2 = 0.7308 | 585.33 | – | 547.73 | – | 509.86 | – | 470.45 | – | 431.31
40000 kPa, x2 = 0.2729 | 621.14 | – | 588.82 | – | 556.62 | – | 523.61 | – | 492.08
40000 kPa, x2 = 0.5021 | 608.38 | 591.53 | 575.17 | 558.59 | 542.25 | 525.24 | 508.28 | 491.93 | 475.9
40000 kPa, x2 = 0.7308 | 594.97 | – | 560.18 | – | 526.15 | – | 491.38 | – | 458.02
50000 kPa, x2 = 0.2729 | 628.91 | – | 598.52 | – | 568.47 | – | 538.25 | – | 509.82
50000 kPa, x2 = 0.5021 | 616.39 | 600.55 | 585.24 | 569.82 | 554.89 | 539.26 | 523.78 | 509 | 494.74
50000 kPa, x2 = 0.7308 | 603.42 | – | 570.96 | – | 539.49 | – | 507.84 | – | 478.11
60000 kPa, x2 = 0.2729 | 635.9 | – | 607.13 | – | 578.91 | – | 550.71 | – | 524.44
60000 kPa, x2 = 0.5021 | 623.79 | 608.7 | 594.24 | 579.76 | 565.84 | 551.17 | 536.84 | 523.17 | 510.12
60000 kPa, x2 = 0.7308 | 611.1 | – | 580.28 | – | 550.83 | – | 521.54 | – | 494.23
70000 kPa, x2 = 0.2729 | 642.5 | – | 614.83 | – | 588.2 | – | 561.45 | – | 537.02
70000 kPa, x2 = 0.5021 | 630.58 | 616.01 | 602.33 | 588.57 | 575.48 | 561.44 | 548.1 | 535.32 | 523.11
70000 kPa, x2 = 0.7308 | 618.12 | – | 588.77 | – | 561.04 | – | 533.25 | – | 507.76
80000 kPa, x2 = 0.2729 | 648.79 | – | 622.08 | – | 596.65 | – | 571.06 | – | 547.99
80000 kPa, x2 = 0.5021 | 636.93 | 622.84 | 609.65 | 596.66 | 584.07 | 570.85 | 558.01 | 546.03 | 534.41
80000 kPa, x2 = 0.7308 | 624.55 | – | 596.34 | – | 570.01 | – | 543.56 | – | 519.7
90000 kPa, x2 = 0.2729 | 654.49 | – | 628.57 | – | 604.5 | – | 579.66 | – | 557.71
90000 kPa, x2 = 0.5021 | 642.73 | 629.02 | 616.63 | 603.93 | 592.03 | 579.23 | 567.04 | 555.52 | 544.56
90000 kPa, x2 = 0.7308 | 630.61 | – | 603.52 | – | 578.24 | – | 552.92 | – | 530.16
100000 kPa, x2 = 0.2729 | 659.68 | – | 634.85 | – | 611.65 | – | 587.69 | – | 566.67
100000 kPa, x2 = 0.5021 | 648.26 | 635.14 | 623.18 | 610.72 | 598.96 | 587 | 575.06 | 564.2 | 553.96
100000 kPa, x2 = 0.7308 | 636.39 | – | 610.01 | – | 585.56 | – | 561.28 | – | 539.53
120000 kPa, x2 = 0.2729 | 669.67 | – | 646.16 | – | 624.31 | – | 601.92 | – | 582.31
120000 kPa, x2 = 0.5021 | 658.24 | 646 | 634.71 | 622.95 | 612.34 | 600.73 | 589.51 | 579.48 | 569.97
120000 kPa, x2 = 0.7308 | 646.6 | – | 621.8 | – | 599.05 | – | 576.29 | – | 556.04
140000 kPa, x2 = 0.2729 | 678.58 | – | 656.29 | – | 635.59 | – | 614.15 | – | 595.88
140000 kPa, x2 = 0.5021 | 667.41 | 655.77 | 644.69 | 634.01 | 623.77 | 612.71 | 602.26 | 592.86 | 583.79
140000 kPa, x2 = 0.7308 | 656.14 | – | 632.64 | – | 610.8 | – | 589.3 | – | 570.27
160000 kPa, x2 = 0.2729 | 686.88 | – | 665.5 | – | 645.73 | – | 625.33 | – | 607.79
160000 kPa, x2 = 0.5021 | 675.8 | 664.45 | 654.03 | 643.77 | 634.07 | 623.67 | 613.48 | 604.42 | 596.12
160000 kPa, x2 = 0.7308 | 664.71 | – | 642.48 | – | 621.39 | – | 600.76 | – | 582.77
180000 kPa, x2 = 0.2729 | 694.53 | – | 673.94 | – | 654.77 | – | 635.3 | – | 618.69
180000 kPa, x2 = 0.5021 | 683.54 | 672.59 | 662.68 | 652.74 | 643.46 | 633.32 | 623.72 | 615.03 | 606.9
180000 kPa, x2 = 0.7308 | 672.47 | – | 651.07 | – | 630.95 | – | 611.22 | – | 593.99
200000 kPa, x2 = 0.2729 | 701.52 | – | 681.74 | – | 663.07 | – | 644.44 | – | 628.49
200000 kPa, x2 = 0.5021 | 690.83 | 680.14 | 670.56 | 660.89 | 652.2 | 642.49 | 632.92 | 624.5 | 616.83
200000 kPa, x2 = 0.7308 | 679.87 | – | 659.14 | – | 639.82 | – | 620.55 | – | 604.14
